In article PMC10051969, “Exploring Probenecid Derived 1,3,4-Oxadiazole-Phthalimide Hybrid as α-Amylase Inhibitor: Synthesis, Structural Investigation, and Molecular Modeling” (Pharmaceuticals, 2023):
Converted amounts (≈) assume the structure as drawn.

Target: α-amylase
Experiment: DNS colorimetric α-amylase assay, starch substrate, absorbance at […] nm
Type: biochemical

## CCCN(CCC)S(=O)(=O)c1ccc(-c2nnc(SCN3C(=O)c4ccccc4C3=O)o2)cc1 [PESMP, 4-(5-((1,3-Dioxoisoindolin-2-yl)methylthio)-1,3,4-oxadiazol-2-yl)-N,N-dipropylbenzene-sulfonamide]
  IC50 Value: 10.60 ± 0.16 µg/mL (≈ 21.2 µM)
